These are literature values, as cited in patent publication US7906537B2, “Substituted p-diaminobenzene derivatives” (priority 2003, dated 2011).

Data set [1] relates to animal models of neuropathic pain. As to conditions: in vivo.
The test system of data set [2] is electrically induced seizures, seizures induced chemically by pentylenetetrazole, picrotoxin and NMDA, DBA/2 mouse. Conditions: after oral and intraperitoneal administration in rats and mice.
For data set [3], the system named is animal models of anxiety-like behaviour. Conditions: in vivo.
For data set [4], the system named is amygdala kindling model. As to conditions: in vivo.
Data set [5] has as its system epileptic patients. As to conditions: clinical trials.
The subject of data set [6] is K(+) current in neuronal cells.
Data set [7] relates to kainic acid-induced status epilepticus. As to conditions: following kainic acid-induced status epilepticus in the rat.
Data set [8] deals with hippocampal kindling. As to conditions: rat.
Data set [9] concerns animal models of ethanol withdrawal syndrome. Conditions: in vivo.

As for `CCOC(=O)Nc1ccc(NCc2ccc(F)cc2)cc1N` [Retigabine, N-(2-amino-4-(4-fluorobenzylamino)-phenyl)carbamic acid ethyl ester], the “effect in animal models of neuropathic pain” value in data set [1] is given as “beneficial”. For the same compound, in [2], the “activity in a range of anticonvulsant tests” value is reported as “active”. The “activity in animal models of anxiety-like behaviour” value in data set [3] is “active”. Also, the “activity in the amygdala kindling model of complex partial seizures” value in data set [4] was “active”. Moreover, in [5], the “incidence of seizures in epileptic patients” value is on record as “effectiveness in reducing the incidence of seizures”. Further, in [6], the “activation of K(+) current” value is reported as “activate a K(+) current”. For the same compound, the “limbic neurodegeneration and expression of markers of apoptosis” value in data set [7] was “prevent limbic neurodegeneration and the expression of markers of apoptosis”. Moreover, in [8], the “progression of hippocampal kindling” value is “delay the progression of hippocampal kindling”.

As for `NCC1(CC(=O)O)CCCCC1` [gabapentin], in data set [9], the “effect in animal models of ethanol withdrawal syndrome” value is “very effective”.
